# Patent publication US20260308185A1, “STAT DEGRADERS AND USES THEREOF” (Recludix Pharma, Inc., priority 2023, published 2026)
# Tested on: pSTAT6 (pY641-STAT6) in PBMC
# Assay: MSD-pSTAT-PBMC Assay (pSTAT6)
# Format: cell-based
# Conditions: compound 3 hrs, then 1 ng/mL IL-4 for 10 min
# From the text: Cryopreserved Peripheral Blood Mononuclear Cells (PBMC) are from AllCells. Recombinant Human […] and IL-6 are from Peprotech. Mouse monoclonal anti-STAT3 antibody, rabbit monoclonal anti-pY705-STAT3 antibody, rabbit monoclonal Anti-pY641-STAT6 antibody, and lysis buffer are from Cell Signaling Technology (CST). Mouse monoclonal anti-STAT6 antibody is from BioLegend. Assay plates, blocker, and anti-rabbit secondary antibody are from Meso Scale Discovery (MSD).
# Cryopreserved PBMCs were thawed out and allowed to recover overnight in IMDM+10% heat-inactivated FBS prior to plating 50,000 (STAT3) or 25,000 (STAT6) cells per well in 96-well U-bottom tissue culture plates. Cells were treated with compound for 3 hrs, then stimulated with 10 ng/mL IL-6 (STAT3) or 1 ng/mL IL-4 (STAT6) for 10 min. Cells were then spun down and washed with ice-cold PBS prior to lysing the cell pellet with 1× lysis buffer (CST) with 1× HALT protease and phosphatase inhibitor cocktail (Thermo). Lysates were transferred to and incubated overnight at 4° C. with shaking in QuickPlex 96-well high bind assay plates (MSD) pre-coated overnight with 30 μL per well of 0.6 μg/mL mouse monoclonal anti-STAT3 antibody (STAT3) or 2 μg/mL mouse monoclonal anti-STAT6 antibody (STAT6) in 1×PBS, and pre-blocked for 1 hour with 3% Blocker-A (MSD). Captured protein in the assay plates were then washed and probed with 25 μL per well of 0.25 μg/ml rabbit monoclonal anti-pY705-STAT3 antibody (STAT3) or 0.18 μg/ml rabbit monoclonal Anti-pY641-STAT6 antibody (STAT6) in 1% Blocker-A for 1 hour at room temperature with shaking, then washed and probed with 25 ul per well of 1 ug/ml Sulfo-TAG Labeled Goat Anti-Rabbit Antibody (MSD) in 1% Blocker-A for 1 hour at room temperature with shaking. Assay plates were then washed and 150 μL of 1× Read Buffer-T (MSD) was added to each well prior to reading on an SQ120 MSD Plate Reader. Assay signal from each sample was subtracted by the signal from unstimulated control wells and normalized to DMSO control wells, IC50 values were calculated using Graph Pad Prism Dose-Response Nonlinear Regression with variable slope. For both pSTAT3 and pSTAT6 A=≤100 nM; B=>100-1000 nM; C=>1000-3000 nM; and D=>3 μM.
row,Structure (SMILES),IC50 [nM]
1,"CCCC(=O)SCCOP(=O)(OCCSC(=O)CCC)C(F)(F)c1ccc2sc(C(=O)NC3CC4CC4CC4CCC(C(=O)N5CC(C#N)C(c6cccc(OCCOCCOc7cccc8c7CN(C7CCC(=O)NC7=O)C8=O)c6)C5)N4C3=O)cc2c1 [Compound 16, S,S′-(((((2-(((3S,6S,7aS,8aR,9aR)-3-((rel-3S,4R)-3-cyano-4-(3-(2-(2-((2-(2,6-dioxopiperidin-3-yl)-1-oxoisoindolin-4-yl)oxy)ethoxy)ethoxy)phenyl)pyrrolidine-1-carbonyl)-5-oxodecahydro-1H-cyclopropa[d]pyrrolo[1,2-a]azocin-6-yl)carbamoyl)benzo[b]thiophen-5-yl)difluoromethyl)phosphoryl)bis(oxy))bis(ethane-2,1-diyl)) dibutanethioate]",< 100
2,"CCCC(=O)SCCOP(=O)(OCCSC(=O)CCC)C(F)(F)c1ccc2sc(C(=O)NC3CC4CC4CC4CCC(C(=O)N5CC(C#N)C(c6cccc(OCCCCCC#Cc7cccc8c7CN(C7CCC(=O)NC7=O)C8=O)c6)C5)N4C3=O)cc2c1 [Compound 8, S,S′-(((((2-(((3S,6S,7aS,8aR,9aR)-3-((rel-3S,4R)-3-cyano-4-(3-((7-(2-(2,6-dioxopiperidin-3-yl)-1-oxoisoindolin-4-yl)hept-6-yn-1-yl)oxy)phenyl)pyrrolidine-1-carbonyl)-5-oxodecahydro-1H-cyclopropa[d]pyrrolo[1,2-a]azocin-6-yl)carbamoyl)benzo[b]thiophen-5-yl)difluoromethyl)phosphoryl)bis(oxy))bis(ethane-2,1-diyl)) dibutanethioate]",< 100
3,"CCCC(=O)SCCOP(=O)(OCCSC(=O)CCC)C(F)(F)c1ccc2sc(C(=O)NC3CC4CC4CC4CCC(C(=O)N5CC(c6ccn(CCOCCOCCOc7cccc8c7CN(C7CCC(=O)NC7=O)C8=O)c(=O)c6)CC56CC6)N4C3=O)cc2c1 [Compound 18, S,S′-(((((2-(((3S,6S,7aS,8aR,9aR)-3-((6R)-6-(1-(2-(2-(2-((2-(2,6-dioxopiperidin-3-yl)-1-oxoisoindolin-4-yl)oxy)ethoxy)ethoxy)ethyl)-2-oxo-1,2-dihydropyridin-4-yl)-4-azaspiro[2.4]heptane-4-carbonyl)-5-oxodecahydro-1H-cyclopropa[d]pyrrolo[1,2-a]azocin-6-yl)carbamoyl)benzo[b]thiophen-5-yl)difluoromethyl)phosphoryl)bis(oxy))bis(ethane-2,1-diyl)) dibutanethioate]",100 to 1000
4,"CCCC(=O)SCCOP(=O)(OCCSC(=O)CCC)C(F)(F)c1ccc2sc(C(=O)NC3CC4CC4CC4CCC(C(=O)N5CC(C#N)C(c6cccc(OCCCCOc7ccc(C8CCC(=O)NC8=O)cc7)c6)C5)N4C3=O)cc2c1 [Compound 4, S,S′-(((((2-(((3S,6S,7aS,8aR,9aR)-3-((rel-3S,4R)-3-cyano-4-(3-(4-(4-(2,6-dioxopiperidin-3-yl)phenoxy)butoxy)phenyl)pyrrolidine-1-carbonyl)-5-oxodecahydro-1H-cyclopropa[d]pyrrolo[1,2-a]azocin-6-yl)carbamoyl)benzo[b]thiophen-5-yl)difluoromethyl)phosphoryl)bis(oxy))bis(ethane-2,1-diyl)) dibutanethioate]",100 to 1000
5,"CCCC(=O)SCCOP(=O)(OCCSC(=O)CCC)C(F)(F)c1ccc2sc(C(=O)NC3CC4CC4CC4CCC(C(=O)N5CC(c6ccn(CCCCCOc7ccc(C8CCC(=O)NC8=O)cc7)c(=O)c6)CC56CC6)N4C3=O)cc2c1 [Compound 9, S,S′-(((((2-(((3S,6S,7aS,8aR,9aR)-3-((6R)-6-(1-(5-(4-(2,6-dioxopiperidin-3-yl)phenoxy)pentyl)-2-oxo-1,2-dihydropyridin-4-yl)-4-azaspiro[2.4]heptane-4-carbonyl)-5-oxodecahydro-1H-cyclopropa[d]pyrrolo[1,2-a]azocin-6-yl)carbamoyl)benzo[b]thiophen-5-yl)difluoromethyl)phosphoryl)bis(oxy))bis(ethane-2,1-diyl)) dibutanethioate]",< 100
6,"CCCC(=O)SCCOP(=O)(OCCSC(=O)CCC)C(F)(F)c1ccc2sc(C(=O)NC3CC4CC4CC4CCC(C(=O)N5CC(c6ccn(CCCCCCC#Cc7cccc8c7CN(C7CCC(=O)NC7=O)C8=O)c(=O)c6)CC56CC6)N4C3=O)cc2c1 [Compound 6, S,S′-(((((2-(((3S,6S,7aS,8aR,9aR)-3-((6R)-6-(1-(8-(2-(2,6-dioxopiperidin-3-yl)-1-oxoisoindolin-4-yl)oct-7-yn-1-yl)-2-oxo-1,2-dihydropyridin-4-yl)-4-azaspiro[2.4]heptane-4-carbonyl)-5-oxodecahydro-1H-cyclopropa[d]pyrrolo[1,2-a]azocin-6-yl)carbamoyl)benzo[b]thiophen-5-yl)difluoromethyl)phosphoryl)bis(oxy))bis(ethane-2,1-diyl)) dibutanethioate]",< 100
7,"CCCC(=O)SCCOP(=O)(OCCSC(=O)CCC)C(F)(F)c1ccc2sc(C(=O)NC3CC4CC4CC4CCC(C(=O)N5CC(C#N)C(c6cccc(N7CCN(c8ccc9c(c8)[nH]c(=O)n9C8CCC(=O)NC8=O)CC7)c6)C5)N4C3=O)cc2c1 [Compound 14, S,S′-(((((2-(((3S,6S,7aS,8aR,9aR)-3-((rel-3S,4R)-3-cyano-4-(3-(4-(1-(2,6-dioxopiperidin-3-yl)-2-oxo-2,3-dihydro-1H-benzo[d]imidazol-5-yl)piperazin-1-yl)phenyl)pyrrolidine-1-carbonyl)-5-oxodecahydro-1H-cyclopropa[d]pyrrolo[1,2-a]azocin-6-yl)carbamoyl)benzo[b]thiophen-5-yl)difluoromethyl)phosphoryl)bis(oxy))bis(ethane-2,1-diyl)) dibutanethioate]",< 100
8,"CCCC(=O)SCCOP(=O)(OCCSC(=O)CCC)C(F)(F)c1ccc2sc(C(=O)NC3CC4CC4CC4CCC(C(=O)N5CC(c6ccn(C7CCN(c8ccc9c(c8)[nH]c(=O)n9C8CCC(=O)NC8=O)CC7)c(=O)c6)CC56CC6)N4C3=O)cc2c1 [Compound 20, S,S′-(((((2-(((3S,6S,7aS,8aR,9aR)-3-((6R)-6-(1-(1-(1-(2,6-dioxopiperidin-3-yl)-2-oxo-2,3-dihydro-1H-benzo[d]imidazol-5-yl)piperidin-4-yl)-2-oxo-1,2-dihydropyridin-4-yl)-4-azaspiro[2.4]heptane-4-carbonyl)-5-oxodecahydro-1H-cyclopropa[d]pyrrolo[1,2-a]azocin-6-yl)carbamoyl)benzo[b]thiophen-5-yl)difluoromethyl)phosphoryl)bis(oxy))bis(ethane-2,1-diyl)) dibutanethioate]",100 to 1000
